Results as given in patent US4052403A, “2-Hydroxyimino-1,2,3,4,6,7-hexahydro-11bH-benzo [a] quinolisine derivatives” (EGYT Gyogyszervegyeszeti Gyar, priority 1975, dated 1977).
Several values for one entry are separate records, joined by “and”; a condition that tells them apart may be missing. Identical values can stand only once. Entries after “also recorded” stand apart in the source; their conditions may differ.

Columns and labels:
[1] = acute toxicity, subcutaneous administration; conditions: mouse, in vivo, sc, mice
Method: The acute toxicities of the new compounds having the general formula (I) were measured on mice, under subcutaneous administration.

[2] = test system: amphetamine-provoked hypermotility; assay: inhibition of amphetamine-provoked hypermotility (psychosedative effect); type: in vivo; conditions: mice, amphetamine 3 mg/kg s.c. simultaneously, control = 100%
Method: This conclusion was based upon experimentation with mice by measuring their inhibition ability exerted on amphetamine-provoked hypermotility. the animals so tested were treated subcutaneously with 3 mg/kg of amphetamine (α-methyl-phenethylamine)while simultaneously administering the novel compound of formula (I) herein. A control test was run in which no psychosedative agent was used. The extent of hypermotility observed in the control group treated only with 3 mg/kg of amphetamine was regarded as 100%, and the percentage of inhibition observed in the test groups was related to this value.

[3] = test system: narcosis provoked by hexobarbital; assay: potentiation of the narcosis provoked by hexobarbital; conditions: in vivo
[4] = test system: analgesic effect of morphine; assay: potentiation of the analgesic effect of morphine; conditions: in vivo
waking cats = assay: behavioural effects in waking cats, compared with scopolamine; type: in vivo; conditions: for akinesia / standing position / behavioural effects in cats (first effects) / paralysis: s.c. 100 mg/kg isomer "b", 150 mg/kg scopolamine; for paralysis: 30 minutes after administration
Method: Accordingly, the effects of this "b" iosmer were compared directly with scopolamine by the use of a subcutaneous dosage of 100 mg/kg of the former and 150 mg/kg of the latter.

waking dogs = assay: behavioural effects in waking dogs, compared with scopolamine; type: in vivo
[5] = anticholinergic / atropine-like activity; conditions: in vivo
[6] = well-known, cited from earlier work

With `CCOc1cc2c(cc1OCC)C1CC(=NO)C3CCCCC3N1CC2` (stereo not shown) [2-Hydroxyimino-3,4-cyclohexano-9,10-diethoxy-1,2,3,4,6,7,-hexahydro-11bH-benzo[a]quinolisine] the LD50 [1] was > 300 mg/kg and the “Inhibition (of amphetamine-provoked hypermotility)” value (shortened to “Inhibition”) ([2]; 100 mg/kg s.c.) was 85%.
For `COc1cc2c(cc1OC)C1CC(=NO)C3CCCCC3N1CC2` (stereo not shown) [2-Hydroxyimino-3,4-cyclohexano-9,10-dimethoxy-1,2,3,4,6,7-he] [2-Hydroxyimino-3,4-cyclohexano-9,10-dimethoxy-1,2,3,4,6,7-hexahydro-11bH-benzo[a]quinolisine], the “potentiation of the narcosis provoked by hexobarbital” value [3] was “nor did it potentiate the narcosis provoked by hexobarbital”, the “potentiation of the analgesic effect of morphine” value [4] was “did not potentiate the analgesic effect of morphine” and the “Inhibition” value ([2]; 20 mg/kg s.c.) was 66%. The “Inhibition” value ([2]; 100 mg/kg s.c.) was 33%, the “akinesia / standing position” value (waking cats; cats) was “more complete akinesia than scopolamine; also recorded: could not be brought to a standing position, their limbs immediately sliding apart although the carriage of their heads remained stationary” and the “behavioural effects in cats (first effects)” value (waking cats; cats) was “restlessness coupled with hallucinations of the same type and degree”. For the same molecule, the paralysis (waking cats; cats) was “all animals were paralyzed”, the “response to capsaicine dropped into the eyes” value (waking cats; cats, s.c., capsaicine into eyes) was “long-lasting blepharospasm and mewing” and the “response to painful stimuli” value (waking cats; cats, s.c., painful stimuli) was “strong mewing response”. The “symptoms in waking cats compared with scopolamine” value (waking cats; waking cats) was “symptons similar to those os scopolamine”, the “symptoms in waking dogs compared with scopolamine” value (waking dogs) was “symptons similar to those os scopolamine” and the “awakening upon smell, slight noise and tactile stimuli” value (waking dogs; 10 mg/kg s.c.) was “not a narcotic effect, for the dogs were awakened readily upon smell stimuli related to food or slight noice and tactile stimuli”. For the same molecule, the behavior after awakening (waking dogs; 10 mg/kg s.c.) was “normal behavior after awakening” and the “behavioural effects in waking dogs” value (waking dogs; 10 mg/kg s.c.) was “remarkable quietness and the animals fell asleep”.
With `COc1cc2c(cc1OC)C1CC(=NO)C3CCCC3N1CC2` (stereo not shown) [2-Hydroxyimino-3,4-cyclopentano-9,10-dimethoxy-1,2,3,4,6,7-h] [2-Hydroxyimino-3,4-cyclopentano-9,10-dimethoxy-1,2,3,4,6,7-hexahydro-11bH-benzo[a]quinolisine] the “Inhibition” value ([2]; 100 mg/kg s.c.) was 40% and 61%.
For `COc1cc2c(cc1OC)C1CC(=NO)C3CCCC3N1CC2` (stereo not shown) [2-Hydroxyimino-3,4-cyclopentano-9,10-dimethoxy-1,2,3,4,6,7-hexahydro-11bH-benzo[a]quinolisine], the LD50 [1] was > 500 mg/kg.
In the case of `CN1[C@@H]2C[C@@H](OC(=O)[C@H](CO)c3ccccc3)C[C@H]1[C@@H]1O[C@@H]12` [scopolamine], the anticholinerg activity [5] is reported as “did not exert anticholinerg activity”, the atropine-like effect [5] is reported as “marked atropine-like effect” and the “akinesia / standing position” value (waking cats; cats) is reported as “remained in a standing position”. The “behavioural effects in cats (first effects)” value (waking cats; cats) was “restlessness coupled with hallucinations of the same type and degree”, the paralysis (waking cats; cats) was “all animals were paralyzed” and the therapeutic psychosedative effects ([6]; small dosages) was “therapeutic psychosedative effects”. The side effects [6] was “strong atropine-like parasympatholytic side effects”.
